Among the test systems are BT-549 breast; HCT-15 colon; KM12 colon; M14 melanoma; NCI/ADR-RES ovarian; OVCAR-5 ovarian; UACC-257 melanoma; UO-31 renal.
Holding throughout (test): NCI anticancer screen, dose series, 48 h

Several values for one entry are separate records, joined by “and”; a condition that tells them apart may be missing. Equal values may be shown once.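 Test compounds were applied to cells in 96-well plates for 48 hours at 5 doses. GI50: concentration for 50% inhibition of growth. TGI: concentration producing complete growth inhibition.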

As for `CC1(C)N=C(N)N=C(N)N1c1cccc(CCCCc2ccc(S(=O)(=O)F)cc2Cl)c1`, the GI50 with BT-549 breast was 4.31 µM; in the assay with HCT-15 colon it was 4.61 µM; with KM12 colon, 1.72 µM; in the assay with M14 melanoma, 7.55 µM; in the assay with NCI/ADR-RES ovarian it was 76 µM; with OVCAR-5 ovarian it was 6.29 µM. The GI50 was 2.15 µM in the assay on UACC-257 melanoma and 14.6 µM in the assay with UO-31 renal. Moreover, the TGI is more than 46.3 µM in the assay with BT-549 breast; more than 100 µM with HCT-15 colon; 15.7 µM in the assay on KM12 colon; 28.1 µM with M14 melanoma; more than 100 µM in the assay on NCI/ADR-RES ovarian; more than 100 µM in the assay on OVCAR-5 ovarian. The TGI is 20.8 µM with UACC-257 melanoma and more than 100 µM with UO-31 renal.

In the case of `NC(=NC1CCCCCC1)c1ccc(N2CCN(c3ccc(C(N)=NC4CCCCCC4)cc3)CC2)cc1`, the GI50 was 2.1 µM with BT-549 breast; 24.3 µM in the assay with HCT-15 colon; 8.35 µM with KM12 colon; 8.74 µM with M14 melanoma; more than 50 µM with NCI/ADR-RES ovarian; 25.4 µM with OVCAR-5 ovarian. Further, the GI50 in the assay on UACC-257 melanoma was 9.75 µM; in the assay with UO-31 renal it was 33.7 µM. Besides, the TGI was 5.48 µM with BT-549 breast; more than 50 µM in the assay with HCT-15 colon; 30.2 µM in the assay with KM12 colon; 30.5 µM with M14 melanoma; more than 50 µM in the assay on NCI/ADR-RES ovarian; more than 50 µM with OVCAR-5 ovarian. Also, the TGI with UACC-257 melanoma and with UO-31 renal was more than 50 µM in each case.

Take `CCN(CC)CCCC(C)Nc1cnc(C(=O)Nc2cc(F)cc3cccnc23)cn1` (configuration not stated): the GI50 with BT-549 breast is 11.1 µM and 1.59 µM; in the assay with HCT-15 colon it was 3.45 µM and 0.751 µM; with KM12 colon it was 6.09 µM and 1.78 µM; in the assay on M14 melanoma, 2.04 µM and 0.994 µM; in the assay with NCI/ADR-RES ovarian it was 7.27 µM and 2.6 µM; with OVCAR-5 ovarian it was 11 µM and 1.41 µM. Moreover, the GI50 in the assay with UACC-257 melanoma is 1.99 µM and 0.563 µM; with UO-31 renal, 4.12 µM and 0.933 µM. In addition, the TGI in the assay with BT-549 breast was 24 µM and 3 µM; in the assay on HCT-15 colon, 13.8 µM and 2.69 µM; with KM12 colon, 19.5 µM and 3.34 µM; in the assay with M14 melanoma it was 4.38 µM and 2.58 µM; with NCI/ADR-RES ovarian it was 21.6 µM and 11.2 µM; in the assay with OVCAR-5 ovarian it was 23.1 µM and 2.91 µM. Besides, the TGI with UACC-257 melanoma is 4.13 µM and 1.94 µM; in the assay with UO-31 renal it was 17.1 µM and 2.23 µM.

For `NC1CCC[C@@H](O)[C@H]1O` (some centres not stated), the TGI in the assay on BT-549 breast, in the assay with HCT-15 colon, with KM12 colon, in the assay with M14 melanoma, with NCI/ADR-RES ovarian and with OVCAR-5 ovarian was more than 100 µM throughout. Also, the TGI in the assay with UACC-257 melanoma and with UO-31 renal was more than 100 µM throughout.

With `Cc1cc(-c2nc3ccc(O)cc3s2)ccc1N`, the GI50 in the assay on BT-549 breast is 14.2 µM; with HCT-15 colon, more than 100 µM; in the assay with KM12 colon, 57.9 µM; with M14 melanoma it was 33.1 µM; with NCI/ADR-RES ovarian, 91.1 µM; in the assay on OVCAR-5 ovarian, 82.6 µM. For the same compound, the GI50 was more than 100 µM in the assay with UACC-257 melanoma and 21.6 µM in the assay with UO-31 renal. For the same compound, the TGI in the assay on BT-549 breast was 33.9 µM; with HCT-15 colon, more than 100 µM; in the assay with KM12 colon, more than 100 µM; with M14 melanoma, more than 100 µM; in the assay with NCI/ADR-RES ovarian, more than 100 µM; with OVCAR-5 ovarian, more than 100 µM. Moreover, the TGI in the assay on UACC-257 melanoma and with UO-31 renal was more than 100 µM in each case.

As for `CCc1ccc(CCC(=O)Nc2ncc(Cc3ccccc3)s2)o1`, the GI50 in the assay on BT-549 breast is 52.2 µM; in the assay with HCT-15 colon it was 0.544 µM; with KM12 colon it was 1.3 µM; in the assay on M14 melanoma, 0.876 µM; with NCI/ADR-RES ovarian it was 2.39 µM; with OVCAR-5 ovarian it was 3.93 µM. The values for the GI50 in the assay on UACC-257 melanoma and in the assay on UO-31 renal were more than 100 µM and 3.19 µM, respectively. The TGI in the assay on BT-549 breast, with HCT-15 colon, in the assay with KM12 colon, in the assay on M14 melanoma, with NCI/ADR-RES ovarian and in the assay on OVCAR-5 ovarian was more than 100 µM throughout. Also, the TGI with UACC-257 melanoma and in the assay on UO-31 renal was more than 100 µM each time.

Take `CN1CCN(Cc2ccc(NC(=O)c3[nH]ncc3Nc3ncnc4c3CCC4)cc2)CC1`: the GI50 in the assay on BT-549 breast is 2.14 µM; with HCT-15 colon it was 1.67 µM; in the assay on KM12 colon, 0.767 µM; with M14 melanoma it was 0.948 µM; in the assay with NCI/ADR-RES ovarian it was 6.17 µM; in the assay with OVCAR-5 ovarian, 3.59 µM. Moreover, the results for the GI50 with UACC-257 melanoma and in the assay on UO-31 renal were 3.49 µM and 1.5 µM, respectively. Further, the TGI with BT-549 breast was found to be 6.97 µM; in the assay on HCT-15 colon, 12.6 µM; in the assay with KM12 colon it was 11.1 µM; in the assay with M14 melanoma, 13.4 µM; in the assay with NCI/ADR-RES ovarian, 45.1 µM; in the assay on OVCAR-5 ovarian, 16.2 µM. Further, the TGI in the assay with UACC-257 melanoma worked out at 15.4 µM; in the assay with UO-31 renal, 7.61 µM.

Turning to `Cn1c2ccc([N+](=O)[O-])cc2c(=O)c2c(O)cc(O)cc21`, the TGI in the assay on BT-549 breast was more than 100 µM; in the assay with HCT-15 colon, more than 100 µM; in the assay on KM12 colon it was more than 100 µM; in the assay with M14 melanoma it was more than 100 µM; in the assay with NCI/ADR-RES ovarian, 55 µM; in the assay with OVCAR-5 ovarian, more than 100 µM. For the same compound, the TGI in the assay with UACC-257 melanoma and in the assay on UO-31 renal was more than 100 µM throughout.

On to `Nc1ncc(-c2ccc(C(F)(F)F)cc2)c(NC2CCCCCC2)n1`, for which the GI50 with BT-549 breast was 34.9 µM; with HCT-15 colon, 38.8 µM; in the assay with KM12 colon, 37.2 µM; with M14 melanoma it was 32.9 µM; in the assay on NCI/ADR-RES ovarian, 25.3 µM; with OVCAR-5 ovarian, 45.6 µM. In addition, the GI50 in the assay with UACC-257 melanoma was 22.3 µM; in the assay with UO-31 renal it was 13 µM. For the same compound, the TGI in the assay with BT-549 breast, with HCT-15 colon, in the assay on KM12 colon, with M14 melanoma, in the assay with NCI/ADR-RES ovarian and with OVCAR-5 ovarian was more than 100 µM throughout. Also, the TGI in the assay on UACC-257 melanoma and in the assay with UO-31 renal was more than 100 µM throughout.

On to `COC[C@H]1OC(=O)c2coc3c2[C@@]1(C)C1=C(C3=O)[C@@H]2CCC(=O)[C@@]2(C)C[C@H]1OC(C)=O`, for which the GI50 with BT-549 breast was 0.485 µM. In addition, the TGI was 12.7 µM in the assay on BT-549 breast; more than 100 µM with HCT-15 colon; more than 100 µM in the assay with KM12 colon; more than 59 µM in the assay with M14 melanoma; more than 100 µM in the assay with NCI/ADR-RES ovarian; more than 100 µM in the assay with OVCAR-5 ovarian. For the same compound, the values for the TGI in the assay with UACC-257 melanoma and in the assay with UO-31 renal were more than 100 µM and more than 72.8 µM, respectively.

These data come from PubChem BioAssay (NCI).
